The results in this text go back to the NIST ThermoML archive (doi:10.1016/j.jct.2012.01.018).

Numbers after ± are expanded uncertainties.

The conditions of data set [1]: Crystal; visual observation.
The nature of data set [2]: molar enthalpy of vaporization or sublimation. The following applies: 298.15 K; Crystal; drop calorimetry.

Turning to `O=[N+]([O-])c1cccc2nsnc12` [4-nitro-2,1,3-benzothiadiazole], the Normal melting temperature in data set [1] is 110 ± 1 °C. For the same molecule, in data set [2], the molar enthalpy was 24.3 ± 2.06 kcal/mol.
